Row | melting point | SMILES
1 | 67 to 69 °C | Cc1c(N2CCOC2=O)cccc1[N+](=O)[O-]
2 | 69 to 71 °C | CNc1ccc2ccccc2n1
3 | 179 to 181 °C | Nc1c(-c2cccnc2)nc2ccccn12
4 | 82 to 84 °C | Cc1ccc(C(=O)CC#N)cc1F
5 | 169 to 171 °C | O=C(O)c1cc(Br)c[nH]1
6 | 145 to 147 °C | Cc1cc(=O)c(C(=O)O)nn1-c1ccccc1C(F)(F)F
7 | 57 to 59 °C | O=[N+]([O-])c1cc(S(=O)(=O)C(F)(F)F)ccc1Cl
8 | 58 to 60 °C | c1ccc2c(c1)NCCN2C1CC1
9 | 249 to 251 °C | COc1cc(C=C2CCCc3c2nc2ccccc2c3C(=O)O)cc(OC)c1OC
10 | 209 to 211 °C | Cc1c(C(=O)O)nnn1-c1cccc2ncccc12
11 | 69 to 71 °C | CC(Cl)C(=O)Nc1ccnn1C(C)C (stereo unspecified)
12 | 368 to 370 °C | O=C(O)c1ccc2c(=O)n(-c3ccccc3)c(S)nc2c1
13 | 113 to 115 °C | CCOC(=O)c1sc2ncnc(Cl)c2c1C
14 | 117 to 119 °C | CNCc1nc(-c2ccccc2)c[nH]1
15 | 48 to 50 °C | CCOC(=O)c1ccc(S(=O)(=O)Cl)c(Br)c1
16 | 139 to 141 °C | O=C(O)CN1CC(=O)NC1=O
17 | 282 to 284 °C | Sc1nc(-c2ccc3c(c2)OCCO3)n[nH]1
18 | 215 to 217 °C | O=C(O)CNC(=O)c1ccc2[nH]nnc2c1
19 | 234 to 236 °C | CN(C)C(C)(C(=O)O)c1ccc(F)cc1 (stereo unspecified)
20 | 188 to 190 °C | CCS(=O)(=O)c1ccc2c(c1)N(CC(=O)O)CC(=O)O2
21 | 172 to 174 °C | Cc1cc(C(=O)O)c2cnn(C(C)C)c2n1
22 | 145 to 147 °C | O=C(O)CNC(=O)C12CC3CC(CC(C3)C1)C2
23 | 87 to 89 °C | O=Cc1cnc(-c2ccccc2)s1

Row | melting point | SMILES
24 | 242 to 244 °C | Nc1nc(-c2ccc(S(=O)(=O)N3CCCCCC3)cc2)cs1
25 | 190 to 192 °C | NS(=O)(=O)c1ccc(S(=O)(=O)N2CCC(C(=O)O)CC2)cc1
26 | 106 to 108 °C | COCc1nc(C(=O)O)cs1
27 | 153 to 155 °C | CNC(C(N)=O)c1cccc(F)c1 (stereo unspecified)
28 | 91 to 93 °C | Cc1cccc(NCCC(N)=O)c1
29 | 204 to 206 °C | Fc1ccc(-c2nnc(S)o2)cc1
30 | 152 to 154 °C | Nc1ccc(CC2NC(=O)NC2=O)cc1 (stereo unspecified)
31 | 327 to 329 °C | N#Cc1cc2ccccc2[nH]c1=O
32 | 210 to 212 °C | Nc1ccc2c(c1)NC(=O)CC2
33 | 132 to 134 °C | CCc1nc2sccc2c(=O)n1N
34 | 147 to 149 °C | Nc1ccc(F)c(NC(=O)c2ccccc2I)c1
35 | 82 to 84 °C | COc1ccc(NCCC(=O)O)cc1
36 | 178 to 180 °C | CCc1ccc2cc(C(=O)O)[nH]c2c1
37 | 149 to 151 °C | Cc1cccc2c(CCC(=O)O)c[nH]c12
38 | 207 to 209 °C | Cc1ccc(NS(=O)(=O)c2ccc(Cl)c(C(=O)O)c2)cc1C
39 | 262 to 264 °C | Cn1cc(-c2nc(C(=O)O)cs2)cn1
40 | 94 to 96 °C | O=S1(=O)CCC(O)c2ccccc21 (stereo unspecified)
41 | 256 to 258 °C | Nc1ccc(S(=O)(=O)Nc2cccnc2)cc1
42 | 89 to 91 °C | CC(C)n1nnnc1S
43 | 94 to 96 °C | CC1CC1C(=O)NCCC(=O)O (stereo unspecified)
44 | 157 to 159 °C | O=C(O)CSc1nncs1
45 | 195 to 197 °C | N#Cc1cn(-c2ccc(N)cc2)nc1N
46 | 103 to 105 °C | NCC(O)COc1ccc2c(c1)CCC(=O)N2 (stereo unspecified)

Row | melting point | SMILES
47 | 151 to 153 °C | CCOC(=O)c1c(N)sc(C(=O)NC)c1C
48 | 189 to 191 °C | NC(=S)C1(NC(=O)c2ccccc2)CCCCC1
49 | 162 to 164 °C | CC(=O)Nc1cc(F)c(F)cc1N
50 | 91 to 93 °C | OCc1cn(-c2ccccc2)nc1-c1ccccc1
51 | 174 to 176 °C | Cc1ccc(C23CC4CC(CC(C(=O)O)(C4)C2)C3)cc1
52 | 76 to 78 °C | Oc1ccccc1-c1nc(CCl)no1
53 | 144 to 146 °C | COc1cccc(C(=O)NN)c1O
54 | 108 to 110 °C | CN(N)C(N)=O
55 | 8 to 10 °C | Cc1nccc(CN)n1
56 | 149 to 151 °C | Nc1ncc(-c2ccccc2F)s1
57 | 141 to 143 °C | CCN(CC)c1ccc(NC(=O)CCl)cc1
58 | 108 to 110 °C | Nc1ccccc1CN1C(=O)CCC1=O
59 | 29 to 31 °C | O=Cc1cccc(OCC(F)(F)F)c1
60 | 124 to 126 °C | CCS(=O)(=O)c1ccccc1Oc1ccc(N)cc1
61 | 63 to 65 °C | Cc1cc(O)c([N+](=O)[O-])cc1S(=O)(=O)Cl
62 | 182 to 184 °C | NC(=O)NCc1cccnc1
63 | 104 to 106 °C | NC1CCN(c2ccc(Cl)c(Cl)c2)C1=O (stereo unspecified)
64 | 283 to 285 °C | O=C(O)c1ccccc1Cc1nc2ccccc2c(=O)[nH]1
65 | 34 to 36 °C | CC(C)(C)OC(=O)N1CCN(CCN)CC1
66 | 254 to 256 °C | O=C(O)c1cc(N2CCCC2=O)ccc1F
67 | 127 to 129 °C | Nc1ccnn1Cc1c(Cl)cccc1Cl
68 | 185 to 187 °C | COc1ccc(-c2nc(N)sc2C)cc1OC
69 | 209 to 211 °C | NC(=O)C1CC(C(=O)O)=NN1c1ccccc1 (stereo unspecified)

Row | melting point | SMILES
70 | 126 to 128 °C | COc1ccc(S(=O)(=O)N2CCC(=O)CC2)cc1
71 | 100 to 102 °C | CC(NC(=O)c1ccco1)C(=O)O (stereo unspecified)
72 | 146 to 148 °C | CC(C)c1cc(C(=O)O)nn1-c1ccccn1
73 | 161 to 165 °C | Nc1nc(-c2cc(Cl)ccc2Cl)cs1
74 | 189 to 191 °C | NC(=O)c1ccc(N=C=S)cc1
75 | 195 to 197 °C | O=C(Nc1ccccc1)c1ccc(O)cc1
76 | 277 to 279 °C | O=C(O)c1cccc(N2CCCNC2=O)c1
77 | 113 to 115 °C | COC(=O)COc1ccc(O)cc1
78 | 71 to 73 °C | CC(C)(C)CC(O)C(=O)O (stereo unspecified)
79 | 95 to 97 °C | COC(=O)/C=C1\SCC(=O)N1CCCCl
80 | 226 to 228 °C | CCOc1ccc(S(=O)(=O)Nc2ccc(C(=O)O)cc2)cc1
81 | 161 to 163 °C | O=C(O)c1ccccc1Oc1ccc(Cl)cc1Cl
82 | 142 to 144 °C | CS(=O)(=O)Cc1cccc(S(=O)(=O)Cl)c1
83 | 57 to 59 °C | N#CCc1nc(C23CC4CC(CC(C4)C2)C3)cs1
84 | 35 to 37 °C | O=C(c1ccc(Br)cc1)c1ccccc1F
85 | 282 to 284 °C | Cc1nc2c(C(N)=O)cnn2c(C)c1CCC(=O)O
86 | 121 to 123 °C | Sc1nnc(-c2ccco2)n1-c1ccccc1
87 | 54 to 56 °C | O=C1C(Br)CCCN1c1ccccc1F (stereo unspecified)
88 | 111 to 113 °C | NS(=O)(=O)CCC(=O)O
89 | 87 to 89 °C | Clc1ccc(NCc2ccccn2)cc1
90 | 119 to 121 °C | NC(=O)CCSc1ccc(F)cc1
91 | 68 to 70 °C | COC(=O)C(C)(N)C(c1ccccc1)c1ccccc1 (stereo unspecified)
92 | 69 to 71 °C | COc1ccc([N+](=O)[O-])cc1C#N

Row | melting point | SMILES
93 | 308 to 310 °C | NS(=O)(=O)c1cccc(NC(=O)c2ccc(C(=O)O)s2)c1
94 | 113 to 115 °C | Nc1ccc(S(=O)(=O)Nc2cccc(C(F)(F)F)c2)cc1
95 | 103 to 105 °C | N#Cc1ccc(NCCN)nc1
96 | 202 to 204 °C | O=C(O)c1cccnc1Nc1cccc(F)c1
97 | 105 to 107 °C | O=C1CC2(CCCC2)C(=O)N1
98 | 69 to 71 °C | CC(C)Oc1cccc(CNC(=O)CCl)c1
99 | 184 to 186 °C | O=C(O)CNCc1c(F)cccc1Cl
100 | 80 to 83 °C | NNC(=O)CNc1ccc(F)cc1
101 | 139 to 141 °C | O=S1(=O)CCNc2ccccc21
102 | 74 to 76 °C | O=C(O)C(Sc1ccc(F)c(Cl)c1)c1ccccc1 (stereo unspecified)
103 | 68 to 70 °C | Cc1cccc(Oc2ccc(N)cn2)c1C
104 | 125 to 127 °C | O=C(O)CC(Br)C(=O)c1cccs1 (stereo unspecified)
105 | 199 to 201 °C | CC(=O)N1CCN(CC(N)=S)CC1
106 | 199 to 203 °C | O=C(O)c1cc(-c2cccc(Cl)c2)nc2nc(N3CCCCC3)sc12
107 | 62 to 64 °C | C=Cc1nc(-c2ccc(Cl)cc2)no1
108 | 196 to 198 °C | O=C(O)Cc1csc(NC(=O)c2cccc(O)c2)n1
109 | 94 to 96 °C | Cc1cccc2c1CCC2=O
110 | 51 to 53 °C | N#Cc1cccc(OCC(F)(F)F)n1
111 | 105 to 107 °C | CC(C)COc1ccc(C(=O)O)cn1
112 | 266 to 268 °C | O=C1Nc2cc(F)c(Br)cc2C1=O
113 | 119 to 121 °C | O=C(O)c1ccccc1OCc1ccccc1Cl
114 | 35 to 37 °C | O=[N+]([O-])c1ccn(CCCBr)n1
115 | 100 to 102 °C | Cc1ccc(C)n1-c1nc(CC(=O)O)cs1

Row | melting point | SMILES
116 | 171 to 173 °C | CC(C(=O)O)n1nnnc1C(C)(C)C (stereo unspecified)
117 | 103 to 105 °C | COc1cc(C(=O)O)cc(CC(C)Cl)c1OC (stereo unspecified)
118 | 206 to 208 °C | Cc1ccc(-n2ncc(Cl)c(Cl)c2=O)cc1Cl
119 | 333 to 335 °C | Nc1ccc(-c2n[nH]c(=O)[nH]2)cc1
120 | 231 to 233 °C | COc1ccc2[nH]c(C(=O)O)cc2c1OC(F)F
121 | 39 to 41 °C | CC1(O)CCc2ccccc2C1 (stereo unspecified)
122 | 62 to 64 °C | COc1cccc(C(C=O)C=O)c1
123 | 210 to 212 °C | CCNc1c(N)n(CC)c(=O)[nH]c1=O
124 | 176 to 178 °C | CSc1ccc([N+](=O)[O-])c(C(=O)O)c1
125 | 141 to 146 °C | Nc1cc(C(=O)O)cc(C(F)(F)F)c1
126 | 206 to 208 °C | CN(C)C(=O)c1ccc(S(N)(=O)=O)cc1
127 | 110 to 112 °C | Cc1ncc(C=O)n1-c1ccc(Br)cc1
128 | 277 to 279 °C | CC(=O)N1CCN(S(=O)(=O)c2ccc(C(=O)O)cc2)CC1
129 | 68 to 75 °C | N#CCC(=O)NCCN1CCOCC1
130 | 275 to 277 °C | Cc1cc(O)nc(-c2ccc(-c3ccccc3)cc2)n1
131 | 210 to 212 °C | Cc1cnc(-c2cccc(C(=O)O)c2)s1
132 | 144 to 146 °C | N#Cc1cccc(-c2ncn[nH]2)c1
133 | 181 to 183 °C | CCOC(=O)c1sc2ncc(C#N)cc2c1C
134 | 121 to 123 °C | Nc1nc(C(F)(F)F)c[nH]1
135 | 149 to 151 °C | COc1cc(C(=O)O)ccc1NN
136 | 123 to 125 °C | CCCCS(=O)(=O)Nc1ccc(S(=O)(=O)Cl)cc1
137 | 206 to 208 °C | O=C(O)c1cc(OCC(F)(F)F)c2ccccc2n1
138 | 112 to 114 °C | O=Cc1nc(-c2cc(Cl)ccc2Cl)cs1

Row | SMILES | melting point
139 | [N-]=[N+]=Nc1ccc(Cl)cc1Cl | 52 to 54 °C
140 | ClCc1nc2cc(Cl)ccc2s1 | 99 to 101 °C
141 | Cc1nn(C(C)(C)C)c(C)c1C(=O)O | 158 to 160 °C
